Measurements published in ChEMBL document CHEMBL4414613, “Antibacterial 5α-Spirostane Saponins from the Fruit of Cordyline manners-suttoniae” (J Nat Prod, 2019).
≈ marks a conversion by molar mass, not a printed value. Calls of active or inactive are those of the source. The calls are words filed in the database; no cut-off is given here.

Experiments:
Staphylococcus aureus [1] = assay: Antibacterial activity against Staphylococcus aureus ATCC 29247 incubated for 24 hrs by microdilution assay; type: functional
Staphylococcus aureus [2] = assay: Antibacterial activity against Staphylococcus aureus ATCC 25923 incubated for 24 hrs by microdilution assay; type: functional
Enterococcus faecium [3] = assay: Antibacterial activity against Enterococcus faecium ATCC 35667 incubated for 24 hrs by microdilution assay; type: functional
Enterococcus faecium [4] = assay: Antibacterial activity against Enterococcus faecium C15 incubated for 24 hrs by microdilution assay; type: functional
Staphylococcus aureus [5] = assay: Bactericidal activity against Staphylococcus aureus ATCC 29247 incubated for 24 hrs by microdilution assay; type: functional; details: ATCC 29247, 24 h
Staphylococcus aureus [6] = assay: Bactericidal activity against Staphylococcus aureus ATCC 25923 incubated for 24 hrs by microdilution assay; type: functional; details: ATCC 25923, 24 h
Enterococcus faecium [7] = assay: Bactericidal activity against Enterococcus faecium ATCC 35667 incubated for 24 hrs by microdilution assay; type: functional; details: ATCC 35667, 24 h
Enterococcus faecium [8] = assay: Bactericidal activity against Enterococcus faecium C15 incubated for 24 hrs by microdilution assay; type: functional; details: C15, 24 h
HaCaT = assay: Cytotoxicity against human HaCaT cells assessed as reduction in cell viability incubated for 4 days by CellTiter 96 aqueous one solution assay; type: cell-based; details: 96 h
NHDF = assay: Cytotoxicity against human HDF cells assessed as reduction in cell viability incubated for 7 days by CellTiter 96 aqueous one solution assay; type: functional, cell-based; details: 168 h
Klebsiella pneumoniae [9] = assay: Antibacterial activity against Klebsiella pneumoniae ATCC 13883 at 90 uM incubated for 24 hrs by microdilution assay; type: functional, organism-based
Klebsiella pneumoniae [10] = assay: Antibacterial activity against Klebsiella pneumoniae ATCC 12657 at 90 uM incubated for 24 hrs by microdilution assay; type: functional, organism-based
Acinetobacter baumannii [11] = assay: Antibacterial activity against Acinetobacter baumannii ATCC 19606 at 90 uM incubated for 24 hrs by microdilution assay; type: functional, organism-based; details: ATCC 19606 = CIP 70.34 = JCM 6841
Acinetobacter baumannii [12] = assay: Antibacterial activity against Acinetobacter baumannii ATCC 17978 at 90 uM incubated for 24 hrs by microdilution assay; type: functional, organism-based
Pseudomonas aeruginosa [13] = assay: Antibacterial activity against Pseudomonas aeruginosa ATCC 10145 at 90 uM incubated for 24 hrs by microdilution assay; type: functional, organism-based
Pseudomonas aeruginosa [14] = assay: Antibacterial activity against Pseudomonas aeruginosa ATCC 49189 at 90 uM incubated for 24 hrs by microdilution assay; type: functional, organism-based
[15] = test system: Enterobacter cloacae subsp. cloacae; assay: Antibacterial activity against Enterobacter cloacae ATCC 13047 at 90 uM incubated for 24 hrs by microdilution assay; type: functional
Klebsiella aerogenes [16] = assay: Antibacterial activity against Enterobacter aerogenes ATCC 13048 at 90 uM incubated for 24 hrs by microdilution assay; type: functional
Klebsiella pneumoniae [17] = assay: Bactericidal activity against Klebsiella pneumoniae ATCC 13883 at 90 uM incubated for 24 hrs by microdilution assay; type: functional, organism-based
Klebsiella pneumoniae [18] = assay: Bactericidal activity against Klebsiella pneumoniae ATCC 12657 at 90 uM incubated for 24 hrs by microdilution assay; type: functional, organism-based
Acinetobacter baumannii [19] = assay: Bactericidal activity against Acinetobacter baumannii ATCC 19606 at 90 uM incubated for 24 hrs by microdilution assay; type: functional, organism-based; details: ATCC 19606 = CIP 70.34 = JCM 6841
Acinetobacter baumannii [20] = assay: Bactericidal activity against Acinetobacter baumannii ATCC 17978 at 90 uM incubated for 24 hrs by microdilution assay; type: functional, organism-based
Pseudomonas aeruginosa [21] = assay: Bactericidal activity against Pseudomonas aeruginosa ATCC 10145 at 90 uM incubated for 24 hrs by microdilution assay; type: functional, organism-based
Pseudomonas aeruginosa [22] = assay: Bactericidal activity against Pseudomonas aeruginosa ATCC 49189 at 90 uM incubated for 24 hrs by microdilution assay; type: functional, organism-based
[23] = test system: Enterobacter cloacae subsp. cloacae; assay: Bactericidal activity against Enterobacter cloacae ATCC 13047 at 90 uM incubated for 24 hrs by microdilution assay; type: functional
Klebsiella aerogenes [24] = assay: Bactericidal activity against Enterobacter aerogenes ATCC 13048 at 90 uM incubated for 24 hrs by microdilution assay; type: functional
[25] = Selectivity ratio of IC50 for human HaCaT cells to IC50 for human HDF cells by CellTiter 96 aqueous one solution assay

MIC75 (Staphylococcus aureus [1]): 21.6 µM (≈ 12.5 µg/mL) | MIC75 (Staphylococcus aureus [2]): 21.6 µM (≈ 12.5 µg/mL) | MIC75 (Enterococcus faecium [3]): 21.6 µM (≈ 12.5 µg/mL) | MIC75 (Enterococcus faecium [4]): 21.6 µM (≈ 12.5 µg/mL)
SMILES: C[C@@H]1CC[C@]2(OC1)O[C@H]1C[C@H]3[C@@H]4CC[C@H]5C[C@@H](O)C[C@@H](O[C@@H]6O[C@H](C)[C@H](O)[C@H](O)[C@H]6O)[C@]5(C)[C@H]4CC[C@]3(C)[C@H]1[C@@H]2C
MBC (Staphylococcus aureus [5]): 21.6 µM (≈ 12.5 µg/mL) | MBC (Staphylococcus aureus [6]): 21.6 µM (≈ 12.5 µg/mL) | MBC (Enterococcus faecium [7]): 43.2 µM (≈ 25 µg/mL) | MBC (Enterococcus faecium [8]): 43.2 µM (≈ 25 µg/mL) | IC50 (HaCaT): 18.2 µM | IC50 (NHDF): 4.3 µM | Activity (Klebsiella pneumoniae [9]): inactive | Activity (Klebsiella pneumoniae [10]): inactive | Activity (Acinetobacter baumannii [11]): inactive | Activity (Acinetobacter baumannii [12]): inactive | Activity (Pseudomonas aeruginosa [13]): inactive | Activity (Pseudomonas aeruginosa [14]): inactive | Activity [15]: inactive | Activity (Klebsiella aerogenes [16]): inactive | Activity (Klebsiella pneumoniae [17]): inactive | Activity (Klebsiella pneumoniae [18]): inactive | Activity (Acinetobacter baumannii [19]): inactive | Activity (Acinetobacter baumannii [20]): inactive | Activity (Pseudomonas aeruginosa [21]): inactive | Activity (Pseudomonas aeruginosa [22]): inactive | Activity [23]: inactive | Activity (Klebsiella aerogenes [24]): inactive | Ratio IC50 [25]: 3 - 11
